Entries after “also recorded” stand apart in the source; their conditions may differ.
Tests used:
stressed mice [1] = assay: Open field test (OFT), locomotor activity, Examples 1-3; assay type: in vivo; conditions: UCMS-stressed male ICR mice; herbs and NHT 30 mg/kg, escitalopram 15 mg/kg i.p., 3 weeks
Method: ICR outbred 28-30 days old male mice (Envigo, Israel) were maintained in the vivarium of the Open University lab in Hadassah Ein Karem medical cement, Jerusalem. Mice were group housed (5 mice per cage) and each cage contained mice from all treatment groups. Mice were given ad libitum access to food and water except during stressor application (with the exclusion of the light/dark cycle reversal). Mice kept on a reversed 12 h light/dark cycle (lights on 7:00 pm-7:00 am) while experimental procedures were performed during the dark phase under red light. All experiments were approved by the Open University of Israel committee for animal care and use. Methods were carried out in accordance with the NIH guidelines.
Crataegus pinnatifida, Triticum aestivum, Lilium brownii and Fructus zizyphi jujuba were purchased as freeze-dried granules (KPC Products, Inc., Irvine, CA, USA). […]
The open field consists of an empty square arena (40×40×40 cm) and surrounded by Perspex opaque walls. Each mouse was placed in the center of the arena and video recorded for 5 min. […] Locomotor activity was expressed as the percentage of time that the mouse was moving in the arena in a velocity above 0.1 pixel/sec. […]

BDNF = BDNF ELISA of hippocampus and PFC, stressed mice; assay type: in vivo; conditions: UCMS-stressed mice; herbs and NHT 30 mg/kg, escitalopram 15 mg/kg i.p., 3 weeks; vs vehicle
Method: Mice were decapitated, and their brains were placed on ice. Serial sections (1 mm wide) were cut onto slides, and tissue punches of the hippocampus and PFC (1.7 mm diameter) were taken. Tissue punches were homogenized in cold extraction buffer (Tris-buffered saline, pH 8.0, with 1% NP-40, 10% glycerol, 5 mM sodium metavanadate, 10 mM PMSF, 100 μg/ml aprotinin and 10 μg/ml leupeptin). Homogenates were acidified with 0.1 M HCl (pH 3.0), incubated at room temperature (22-24° C.) for 15 min, and neutralized (pH 7.6) with 0.1 M NaOH. Homogenates were then microfuged at 7000×g for 10 min. BDNF levels were quantified using sandwich ELISA (R&D systems, Minneapolis, MN, USA) according to the manufacturer's instructions.

stressed mice [2] = assay: Evaluation of sexual function (number of mounts), stressed mice; assay type: in vivo; conditions: UCMS-stressed male mice, 30 min with female in estrus, Shan-zha and NHT 30 mg/kg, escitalopram 15 mg/kg i.p., 3 weeks, vs vehicle
Method: Crataegus pinnatifida, Triticum aestivum, Lilium brownii and Fructus zizyphi jujuba were purchased as freeze-dried granules (KPC Products, Inc., Irvine, CA, USA). Each herb was dissolved in saline with 1% dimethylsulfoxide (DMSO) to a final concentration of 0.47 mg/ml and injected i.p. individually (30 mg/kg) or with the other components to form the formula (NHT, 30 mg/kg). […] Vehicle treatment included i.p. injection of saline with 1% DMSO. All treatments were carried out for 3 weeks. Each male mouse was placed with a female mouse in estrus in the male's home cage during the dark phase under red dim light for 30 min. Number of mounts were coded by an observer blind to the treatment.

dams = assay: EPM in dams after restrain stress during gestation; assay type: in vivo, mice; conditions: PND21, 15 mg/kg s.c. daily PND1-PND21
Method: The EPM task was performed as previously described. Shortly, each mouse was placed in the center of the maze and video recorded for 5 min. Anxiety-like behavior was expressed as the time the mouse spent in the open, unprotected arms of the maze.
Female (n=40) and male (n=5) ICR outbred mice (100 days old; Envigo RMS, Jerusalem, Israel) were housed at 22±1° C. under 12 h light/dark cycles in the vivarium of the Open University lab in Hadassah medical center, Jerusalem. Mice had ad libitum access to rodent chow and water. Mice were housed in standard cages with a bed of woodchips and a piece of cotton wool for enrichment. All experiments were performed during the dark phase of the cycle. Male mice were used to father pups and were housed apart (5 per cage) from females until mating. […] Once a vaginal plug was identified, the females were transferred to a separate cage until parturition. Overall, 455 pups were delivered of which 317 (male: n=165; female: n=152) were designated for this study. Unassessed pups were maintained with littermates to avoid additional stress and ensure similar conditions. […]
Following mating, dams were separated to individual cages and were observed periodically to ensure onset of pregnancy. […] Shortly after, anxiety-like behavior was assessed on the EPM and dams were assigned to treatment group (escitalopram/shan-zha/vehicle). […]

Ckb gene = assay: Hippocampal RNA-sequencing, gene expression after UCMS; assay type: in vivo; conditions: hippocampus; UCMS mice; Shan-zha 30 mg/kg, escitalopram 15 mg/kg, 3 weeks; vs UCMS-exposed saline treated group
Method: (§1) An Unbiased genome-wide transcriptomic profiling was conducted to reveal alterations in gene expression in the hippocampus induced by treatment. Male ICR mice were subjected to UCMS, after which they were treated with Shan-zha (30 mg/kg), NHT (30 mg/kg), Esciatlopram (15 mg/kg) or saline for 3 weeks. The anxiolytic-like effect of the treatments was verified by EPM. Subsequently, brains were rapidly removed and RNA was isolated from the hippocampus using RNeasy kit (Qiagen). RNA-sequencing (on NGS) and gene expression analysis was conducted. The analysis yielded a wide range of changes in gene expression.
(§2) First, all samples were normalized and clustered in order to verify that there are no noticeable biases based on batches/process/technician/day.. Next, hit maps were generated, in order to observe the global differences between the groups. After which, a PCA analysis was performed to visualize the separation between the samples. Finally, Differential expression analysis with DESE-Q was done, and changes in gene expression of the following genes, which are highly relevant to anxiety, depression or drug-related side effects were followed: […]

rab11B gene = assay: as above; assay type: in vivo; conditions: hippocampus; UCMS mice; Shan-zha 30 mg/kg, escitalopram 15 mg/kg, 3 weeks; vs UCMS-exposed saline treated group
Method: as §1, §2

locomotor activity in the OFT (stressed mice [1]): No change in locmotor activity
Structure (SMILES): CN(C)CCC[C@@]1(c2ccc(F)cc2)OCc2cc(C#N)ccc21 [escitalopram]
BDNF levels in the PFC (BDNF): elevations in BDNF levels in the PFC compared to vehicle-treated mice; also recorded: elevated BDNF levels in the PFC compared to vehicle
hippocampal BDNF levels (BDNF): elevations in hippocampal BDNF levels compared to vehicle-treated mice; also recorded: elevated hippocampal BDNF levels compared to vehicle
sexual function (number of mounts) (stressed mice [2]): significantly reduced sexual function compared to vehicle
sexual function (number of mounts) (stressed mice [2]; listed as Escitalopram): lower number of mounts in comparison with vehicle-treated mice
anxiety-like behavior in the EPM, treated stressed dams vs saline-treated stressed dams (dams; restrain stress during gestation, 15 mg/kg): saline-treated stressed dams demonstrated elevated anxiety-like behavior compared to both shan-zha- and escitalopram-treated stressed dams; also recorded: the stress-vehicle group demonstrated increased anxiety-like behavior compared to the naïve-vehicle, stress-escitalopram and stress-shan-zha groups
effect of stress manipulation on time spent in open arms within treatment group, dams (dams; stressed vs naive dams): Stress manipulation did not affect time spent in open arms
Ckb gene expression (Ckb gene): 0.83 fold change
RAB11b gene expression (rab11B gene): 0.77 fold change

Source: patent US20240016875A1, “SHAN-ZHA FOR THE TREATMENT OF DEPRESSION AND ANXIETY DISORDERS” (THE OPEN UNIVERSITY, priority 2020, published 2024)
